Results as given in patent US20010053776A1, “Tricyclic pyridin-2-one analogue as a GABA receptor ligand” (priority 2000, published 2001).

**Q.** With `Cc1csc(-c2cc(-c3ccncc3)c3n(c2=O)CCCc2ccncc2-3)n1` [Example 1, 9-(4-Methylthiazol-2-yl)-11-(pyridin-4-yl)-6,7-dihydro-5H-2,7a-diazadibenzo[a,c]cyclohepten-8-one] as the compound, how does the melting point read?
**A.** Its melting point is 300 to 302 °C.
